Data from PubChem BioAssay AID1919009 (Molecular Pharmacology Branch, DTP, NCI, 2023).

Tested on: K24384-001-R-PDC complex spheroid growth
Assay: Anticancer human tumor K24384-001-R-PDC patient-derived pancreatic adenocarcinoma cell line growth inhibition [AhR]
Settings: for IC50: curve of first compound; for viability, T/C: stronger effect = lower value
In short: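 Complex tumor spheroids co-cultured with HUVEC and human MSC stroma; AhR antagonists tested in combination with standard-of-care and investigational agents. Top concentration at or near clinical Cmax (else 10 microM), half-log dilutions; growth expressed as percent test/control.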

[1] = second compound 0.1 µM, first compound 0.0316 µM
[2] = second compound 0.1 µM, first compound 0.1 µM
[3] = second compound 0.1 µM, first compound 0.316 µM
[4] = second compound 0.1 µM, first compound 1 µM
[5] = second compound 0.1 µM, first compound 3.16 µM
[6] = second compound 0.1 µM, first compound 10 µM
[7] = second compound 0.316 µM, first compound 0.0316 µM
[8] = second compound 0.316 µM, first compound 0.1 µM
[9] = second compound 0.316 µM, first compound 0.316 µM
[10] = second compound 0.316 µM, first compound 1 µM
[11] = second compound 0.316 µM, first compound 3.16 µM
[12] = second compound 0.316 µM, first compound 10 µM
[13] = second compound 1 µM, first compound 0.0316 µM
[14] = second compound 1 µM, first compound 0.1 µM
[15] = second compound 1 µM, first compound 0.316 µM
[16] = second compound 1 µM, first compound 1 µM
[17] = second compound 1 µM, first compound 3.16 µM
[18] = second compound 1 µM, first compound 10 µM
[19] = second compound 3.16 µM, first compound 0.0316 µM
[20] = second compound 3.16 µM, first compound 0.1 µM
[21] = second compound 3.16 µM, first compound 0.316 µM
[22] = second compound 3.16 µM, first compound 1 µM
[23] = second compound 3.16 µM, first compound 3.16 µM
[24] = second compound 3.16 µM, first compound 10 µM
[25] = second compound 10 µM, first compound 0.0316 µM
[26] = second compound 10 µM, first compound 0.1 µM
[27] = second compound 10 µM, first compound 0.316 µM
[28] = second compound 10 µM, first compound 1 µM
[29] = second compound 10 µM, first compound 3.16 µM
[30] = second compound 10 µM, first compound 10 µM
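Throughout, for viability, T/C: percent of DMSO vehicle-treated spheroid viability set as 100%.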

CC1(C)CCC(CN2CCN(c3ccc(C(=O)NS(=O)(=O)c4ccc(NCC5CCOCC5)c([N+](=O)[O-])c4)c(Oc4cnc5[nH]ccc5c4)c3)CC2)=C(c2ccc(Cl)cc2)C1 + CC(CO)NC(=O)c1cc(-c2ccc(Cl)cc2)nn(-c2cnn(C)c2)c1=O
IC50 (second compound 0.1 µM): > 10000 nM | IC50 (second compound 0.316 µM): > 10000 nM | IC50 (second compound 1 µM): > 10000 nM | IC50 (second compound 3.16 µM): 9000 nM | IC50 (second compound 10 µM): > 10000 nM | viability, T/C [1]: 91.4% | viability, T/C [2]: 115% | viability, T/C [3]: 94.4% | viability, T/C [4]: 88.3% | viability, T/C [5]: 87.9% | viability, T/C [6]: 50.5% | viability, T/C [7]: 117% | viability, T/C [8]: 124% | viability, T/C [9]: 123% | viability, T/C [10]: 101% | viability, T/C [11]: 106% | viability, T/C [12]: 49.9% | viability, T/C [13]: 123% | viability, T/C [14]: 139% | viability, T/C [15]: 123% | viability, T/C [16]: 115% | viability, T/C [17]: 110% | viability, T/C [18]: 51.7% | viability, T/C [19]: 97.3% | viability, T/C [20]: 112% | viability, T/C [21]: 122% | viability, T/C [22]: 110% | viability, T/C [23]: 77.9% | viability, T/C [24]: 47.2% | viability, T/C [25]: 101% | viability, T/C [26]: 114% | viability, T/C [27]: 113% | viability, T/C [28]: 110% | viability, T/C [29]: 90.2% | viability, T/C [30]: 53%

CCN(c1cc(-c2ccc(CN3CCOCC3)cc2)cc(C(=O)NCc2c(C)cc(C)[nH]c2=O)c1C)C1CCOCC1 + CC(CO)NC(=O)c1cc(-c2ccc(Cl)cc2)nn(-c2cnn(C)c2)c1=O
IC50 (second compound 0.1 µM): > 3000 nM | IC50 (second compound 0.316 µM): > 3000 nM | IC50 (second compound 1 µM): > 3000 nM | IC50 (second compound 3.16 µM): > 3000 nM | IC50 (second compound 10 µM): > 3000 nM | viability, T/C (second compound 0.1 µM, first compound 0.00949 µM): 119% | viability, T/C (second compound 0.1 µM, first compound 0.03 µM): 125% | viability, T/C (second compound 0.1 µM, first compound 0.0949 µM): 122% | viability, T/C (second compound 0.1 µM, first compound 0.3 µM): 107% | viability, T/C (second compound 0.1 µM, first compound 0.949 µM): 95.4% | viability, T/C (second compound 0.1 µM, first compound 3 µM): 91.8% | viability, T/C (second compound 0.316 µM, first compound 0.00949 µM): 117% | viability, T/C (second compound 0.316 µM, first compound 0.03 µM): 135% | viability, T/C (second compound 0.316 µM, first compound 0.0949 µM): 125% | viability, T/C (second compound 0.316 µM, first compound 0.3 µM): 120% | viability, T/C (second compound 0.316 µM, first compound 0.949 µM): 98.2% | viability, T/C (second compound 0.316 µM, first compound 3 µM): 98.9% | viability, T/C (second compound 1 µM, first compound 0.00949 µM): 107% | viability, T/C (second compound 1 µM, first compound 0.03 µM): 139% | viability, T/C (second compound 1 µM, first compound 0.0949 µM): 154% | viability, T/C (second compound 1 µM, first compound 0.3 µM): 144% | viability, T/C (second compound 1 µM, first compound 0.949 µM): 102% | viability, T/C (second compound 1 µM, first compound 3 µM): 90.8% | viability, T/C (second compound 3.16 µM, first compound 0.00949 µM): 122% | viability, T/C (second compound 3.16 µM, first compound 0.03 µM): 123% | viability, T/C (second compound 3.16 µM, first compound 0.0949 µM): 113% | viability, T/C (second compound 3.16 µM, first compound 0.3 µM): 119% | viability, T/C (second compound 3.16 µM, first compound 0.949 µM): 113% | viability, T/C (second compound 3.16 µM, first compound 3 µM): 119% | viability, T/C (second compound 10 µM, first compound 0.00949 µM): 117% | viability, T/C (second compound 10 µM, first compound 0.03 µM): 123% | viability, T/C (second compound 10 µM, first compound 0.0949 µM): 118% | viability, T/C (second compound 10 µM, first compound 0.3 µM): 107% | viability, T/C (second compound 10 µM, first compound 0.949 µM): 99.4% | viability, T/C (second compound 10 µM, first compound 3 µM): 102%

COc1cc(Nc2ncc3c(n2)-c2ccc(Cl)cc2C(c2c(F)cccc2OC)=NC3)ccc1C(=O)O + CC(CO)NC(=O)c1cc(-c2ccc(Cl)cc2)nn(-c2cnn(C)c2)c1=O
IC50 (second compound 0.1 µM): 2010 nM | IC50 (second compound 0.316 µM): 7780 nM | IC50 (second compound 1 µM): > 10000 nM | IC50 (second compound 3.16 µM): > 10000 nM | IC50 (second compound 10 µM): > 10000 nM | viability, T/C [1]: 87.6% | viability, T/C [2]: 80.7% | viability, T/C [3]: 84% | viability, T/C [4]: 57.6% | viability, T/C [5]: 44.5% | viability, T/C [6]: 45.5% | viability, T/C [7]: 81% | viability, T/C [8]: 79.9% | viability, T/C [9]: 76.4% | viability, T/C [10]: 57.5% | viability, T/C [11]: 48.4% | viability, T/C [12]: 51.6% | viability, T/C [13]: 92.3% | viability, T/C [14]: 77.7% | viability, T/C [15]: 79.4% | viability, T/C [16]: 60.5% | viability, T/C [17]: 49.5% | viability, T/C [18]: 55% | viability, T/C [19]: 90.6% | viability, T/C [20]: 73.4% | viability, T/C [21]: 72.5% | viability, T/C [22]: 54% | viability, T/C [23]: 62.3% | viability, T/C [24]: 58.6% | viability, T/C [25]: 94% | viability, T/C [26]: 77.1% | viability, T/C [27]: 80.7% | viability, T/C [28]: 69.7% | viability, T/C [29]: 64% | viability, T/C [30]: 65.8%

Cn1ncnc1C1c2n[nH]c(=O)c3cc(F)cc(c23)NC1c1ccc(F)cc1 (stereo not given) + CC(CO)NC(=O)c1cc(-c2ccc(Cl)cc2)nn(-c2cnn(C)c2)c1=O
IC50 (second compound 0.1 µM): > 100 nM | IC50 (second compound 0.316 µM): > 100 nM | IC50 (second compound 1 µM): > 100 nM | IC50 (second compound 3.16 µM): > 100 nM | IC50 (second compound 10 µM): > 100 nM | viability, T/C (second compound 0.1 µM, first compound 0.000316 µM): 101% | viability, T/C (second compound 0.1 µM, first compound 0.001 µM): 99.9% | viability, T/C (second compound 0.1 µM, first compound 0.00316 µM): 94% | viability, T/C (second compound 0.1 µM, first compound 0.01 µM): 79.8% | viability, T/C [1]: 82% | viability, T/C [2]: 69.5% | viability, T/C (second compound 0.316 µM, first compound 0.000316 µM): 105% | viability, T/C (second compound 0.316 µM, first compound 0.001 µM): 108% | viability, T/C (second compound 0.316 µM, first compound 0.00316 µM): 90.4% | viability, T/C (second compound 0.316 µM, first compound 0.01 µM): 80.8% | viability, T/C [7]: 74.7% | viability, T/C [8]: 74.8% | viability, T/C (second compound 1 µM, first compound 0.000316 µM): 95% | viability, T/C (second compound 1 µM, first compound 0.001 µM): 105% | viability, T/C (second compound 1 µM, first compound 0.00316 µM): 90.3% | viability, T/C (second compound 1 µM, first compound 0.01 µM): 65.8% | viability, T/C [13]: 76.6% | viability, T/C [14]: 72.4% | viability, T/C (second compound 3.16 µM, first compound 0.000316 µM): 78.7% | viability, T/C (second compound 3.16 µM, first compound 0.001 µM): 74.4% | viability, T/C (second compound 3.16 µM, first compound 0.00316 µM): 81.2% | viability, T/C (second compound 3.16 µM, first compound 0.01 µM): 69.9% | viability, T/C [19]: 61.8% | viability, T/C [20]: 62.8% | viability, T/C (second compound 10 µM, first compound 0.000316 µM): 66.3% | viability, T/C (second compound 10 µM, first compound 0.001 µM): 67.8% | viability, T/C (second compound 10 µM, first compound 0.00316 µM): 67.8% | viability, T/C (second compound 10 µM, first compound 0.01 µM): 66.1% | viability, T/C [25]: 63.3% | viability, T/C [26]: 54.1%

NS(=O)(=O)OCC1CC(n2ccc3c(NC4CCc5ccccc54)ncnc32)CC1O (stereo not given) + CC(CO)NC(=O)c1cc(-c2ccc(Cl)cc2)nn(-c2cnn(C)c2)c1=O
IC50 (second compound 0.1 µM): 984 nM | IC50 (second compound 0.316 µM): 811 nM | IC50 (second compound 1 µM): 860 nM | IC50 (second compound 3.16 µM): 473 nM | IC50 (second compound 10 µM): 642 nM | viability, T/C [1]: 114% | viability, T/C [2]: 123% | viability, T/C [3]: 116% | viability, T/C [4]: 49% | viability, T/C [5]: 28.7% | viability, T/C [6]: 25.3% | viability, T/C [7]: 132% | viability, T/C [8]: 147% | viability, T/C [9]: 89.4% | viability, T/C [10]: 45.6% | viability, T/C [11]: 26.6% | viability, T/C [12]: 22.1% | viability, T/C [13]: 152% | viability, T/C [14]: 162% | viability, T/C [15]: 72% | viability, T/C [16]: 38.2% | viability, T/C [17]: 32.9% | viability, T/C [18]: 22.5% | viability, T/C [19]: 125% | viability, T/C [20]: 128% | viability, T/C [21]: 60.6% | viability, T/C [22]: 38.8% | viability, T/C [23]: 28.6% | viability, T/C [24]: 23.1% | viability, T/C [25]: 87.1% | viability, T/C [26]: 79.8% | viability, T/C [27]: 59.1% | viability, T/C [28]: 44.7% | viability, T/C [29]: 29.6% | viability, T/C [30]: 24.6%
